The target of one test is T1, Squalene Synthetase (Rattus norvegicus, UniProt Q02769).
T1 construct: from tissue; host or cells: rat liver microsomes
T1 sequence (Q02769 1-416): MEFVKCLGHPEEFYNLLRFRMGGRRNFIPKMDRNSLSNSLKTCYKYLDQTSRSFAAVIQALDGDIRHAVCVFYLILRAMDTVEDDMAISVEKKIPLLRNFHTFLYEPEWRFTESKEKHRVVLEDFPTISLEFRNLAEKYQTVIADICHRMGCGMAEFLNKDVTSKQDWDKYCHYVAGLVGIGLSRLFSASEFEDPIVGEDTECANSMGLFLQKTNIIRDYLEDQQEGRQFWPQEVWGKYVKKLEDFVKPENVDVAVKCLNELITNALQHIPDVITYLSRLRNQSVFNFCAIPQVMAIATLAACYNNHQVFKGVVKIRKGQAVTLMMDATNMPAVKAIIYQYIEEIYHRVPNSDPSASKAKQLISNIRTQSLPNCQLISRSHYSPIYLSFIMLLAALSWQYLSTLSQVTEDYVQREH
In words: Inhibition of Squalene Synthetase (formation of squalene from tritiated farnesyl pyrophosphate, rat liver microsomal protein). The following applies: 20 μM 1-[3H]-farnesyl pyrophosphate, 15 minutes, 37° C., read-out: IC50 (concentration which results in a 50% inhibition of squalene production). The format is biochemical. The method, then: (a) Inhibition of Squalene Synthetase
In this test, the ability of a compound to prevent the formation of squalene from a radioactive substrate (tritiated farnesyl pyrophosphate) is assessed.
The test compound is incubated at a concentration of 25 micromolar in 200 μl of a buffered solution containing potassium phosphate (50 mM), MgCl2 (4.95 mM), KF (9.9 mM), NADPH (0.9 mM) and rat liver microsomal protein (20 μg). Rat liver microsomes are prepared by the method described in published European Patent Application No. 324,421 and stored in liquid nitrogen prior to assay. Assay vials are kept at 37° C. throughout the incubation.
The reaction is started with the addition of the substrate (1-[^3 H]-farnesyl pyrophosphate), final concentration 20 μM, and stopped after 15 minutes reaction time with the addition of 50 μl of 4% KOH. The reaction products are separated from unreacted substrate after application to a C-18 octadecyl 1ccBond column (Analytichem Int product No. 617101). An aqueous fraction is eluted with 250 μl of 0.1M KOH. Squalene is then eluted with 1.0 ml 10% ethylacetate in hexane and radioactivity determined. The difference in radioactivity in the presence and absence of the test compound is used to determine the level of inhibition. […] The IC50 can then be determined from a plot of percentage inhibition against concentration of test compound.

For test [1], the system named is de novo hepatic cholesterol synthesis. The test can be described thus: Acute Rat Cholesterol Synthesis Assay (de novo hepatic cholesterol synthesis from exogenously administered 14C-acetate). It counts as in vivo. The following applies: female rats, oral gavage, ip or iv (route not specified), 14C-acetate ip after 1 hour, blood sample a further hour later. The method, then:
(b) Acute Rat Cholesterol Synthesis Assay
This is an acute in vivo test in the rat to measure de novo hepatic cholesterol synthesis from exogenously administered ^14 C-acetate.
Female rats (35-55 g) are housed in reverse lighting conditions (red light from 0200h-1400h) for a period of about 2 weeks prior to test. Animals are allowed free access to chow and drinking water throughout this period. At test, animals should weigh 125-150 g.
Test compounds may be administered by oral gavage, dissolved or suspended in 0.5% polysorbate, or by ip or iv dosing. Control animals receive vehicle alone. After 1 hour the rats are injected ip with 25 μCi [2-^14 C]-acetate (NEN DUPONT. specific activity, 45-60 mCi/mmol NEC-085H, or AMERSHAM specific activity, 50-60 mCi/mmol CFA 14) in a volume of 0.25 ml saline (100 μCi/ml). After a further hour, rats are terminally anaesthetised with halothane and a blood sample obtained from the abdominal vena cava.
1 ml of plasma is lyophilised and then saponified in 2 ml ethanolic KOH (1 part 33% KOH, 9 parts ethanol) at 75° C. for 2 hours. After addition of an equal quantity of water, non-saponifiable lipids are extracted with two 5 ml volumes of hexane. The hexane extracts are evaporated to dryness and the residues dissolved in ethanol to determine cholesterol specific radioactivity. ED50 values can be determined in the standard way.

Each structure is given as a SMILES string.

In the case of `OC1(c2cccc(-c3ccccc3)c2)CN2CCC1CC2` (centres unmarked) [Example 3, 3-(biphenyl-3-yl)-3-hydroxyquinuclidine], the IC50 at Squalene Synthetase was 600 nM.
As to `OC1(c2ccc(-c3ccc(F)cc3)cc2)CN2CCC1CC2` (centres unmarked) [Example 6, 3-[4'-fluorobiphenyl-4-yl]-3-hydroxyquinuclidine], in test [1], it took a dose of 8 mg/kg to reach the 50% effect level (ED50).
